Test results taken from patent publication US10104891B2 (priority 2014, dated 2018).

Assays:
Format in all cases: in vivo
[1] = tested on: Phytophthora infestans; assay: whole plant or invertebrate; settings: for pest or weed control at 4 µg/mL: Phytophthora infestans, in Solanum lycopersicum, 96 h, read-out: control value (Test 1); for control value (Test 1): tomato late blight, control value vs untreated section
[2] = tested on: Pseudoperonospora cubensis; assay: Test 2: control effect against cucumber downy mildew; settings: control value vs untreated section; for pest or weed control at 4 µg/mL: Pseudoperonospora cubensis, 120 h
Method in brief: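 Cucumber (Sagami hanjiro) at 2-leaf stage sprayed with 4 ppm compound from 10% wettable powder in Tween20 (1/5000); inoculated next day with P. cubensis zoospores, 1.0×10^4 units/ml, 16 hr moist chamber at 22° C. Lesion area rate scored 5 days post-inoculation; control value = (1 − treated/untreated onset area rate)×100.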

[3] = tested on: Plasmopara viticola; assay: Test 3: control effect against grape downy mildew; settings: control value vs untreated section; for pest or weed control at 4 µg/mL: Plasmopara viticola, 120 h
Method in brief: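 Neomuscat grape seedlings were sprayed with compound at 4 ppm, diluted from a 10% wettable powder in Tween20 solution. One day later they were inoculated with Plasmopara viticola zoospores at 1.0×10^4 units/ml and held moist at 22° C. for 16 hr. Control value was derived from leaf lesion area at 5 days versus untreated leaves.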

[4] = tested on: Pythium graminicola; assay: Test 4: control effect against rice damping-off by the Pythium fungus (soil lavage); settings: 1,000 ppm, 2.5 ml test suspension drenched on contaminated soil, rice (koshihikari)
Description: A 10% wettable powder created according to the Pharmaceutical Formulation Example 1 was diluted with a Tween20 solution prepared to a concentration of 1/5000, then the compound of formula [1] was prepared to a concentration of 4 ppm. Further, the compound of formula [1] in Test 4 was adjusted to a concentration of 1,000 ppm.
<Test 4 Test of Control Effect Against Rice Damping-Off by the Pythium Fungus (Soil Lavage)>
Distilled water was added to the flora of Pythium graminicola cultured in bentoglass seed culture and stirred with a mixer, and adjusted the contaminated soil to 5 g of bacteria against 1 kg of soil.
In a cell tray having 31×31 mm^2 per cell, 20 ml of the contaminated soil was filled in each cell, and 3 seeds of rice chaff that has been forced to sprout (Species: koshihikari) were seeded, and 5 ml of soil was added for covering, then 2.5 ml of test suspension was drenched, and the seeds were incubated in a moist chamber adjusted to 28° C. for 72 hr to induce sprouting. Then, in a low temperature room of 5° C., the onset of disease was induced for 2 days, then the disease was nurtured for 14 days in a room of 25° C.
The soil was washed, and the apoptosis strain, growth restrained strain, and a healthy strain were measured and the onset rate was calculated by the following formula. Onset rate=[Σ(onset strain number by level×onset index)/(investigated strain×3)]×100 [Onset Index]
1: Growth restrained strain
Also, the following formula was used to compute the control value from the obtained onset index. control value={1−onset area rate at the section applied the test agent/onset area rate of untreated section}×100 Computational formula of the control value: […]

| SMILES | pest or weed control at 4 µg/mL [1] [%] | pest or weed control at 4 µg/mL [2] [%] | pest or weed control at 4 µg/mL [3] [%] | pest or weed control at 1000 ppm [4] [%] | control value (Test 1) [1] | control value (Test 2) [2] | control value (Test 3) [3] |
| --- | --- | --- | --- | --- | --- | --- | --- |
| Cc1ccc(C)c(N(C)C(=O)N2CCC(c3nc(C4OCc5c(F)ccc(OS(C)(=O)=O)c5CO4)cs3)CC2)c1 (centres unmarked) [Compound 2-55, 4-[4-(6-fluoro-9-methylsulfonyloxy-1,5-dihydro-3H-2,4-benzodioxepin-3-yl)-2-thiazolyl]-1-[N-(2,5-dimethylphenyl)-N-methylcarbamoyl]piperidine] | 100 | 100 | 100 | ≥ 90 | – | – | – |
| CS(=O)(=O)Oc1ccc(F)c2c1COC(c1csc(C3CCN(C(=S)Cn4nc(C(F)F)cc4C(F)F)CC3)n1)OC2 (centres unmarked) [Compound 1-158, 4-[4-(6-fluoro-9-methylsulfonyloxy-1,5-dihydro-3H-2,4-benzodioxepin-3-yl)-2-thiazolyl]-1-[2-[3,5-bis(difluoromethyl)-1H-pyrazole-1-yl]thioacetyl]piperidine] | 100 | 100 | 100 | ≥ 90 | – | – | – |
| Cc1cc(C(F)(F)F)nn1CC(=S)N1CCC(c2nc(C3OCc4cccc(OS(C)(=O)=O)c4CO3)cs2)CC1 (centres unmarked) [Compound 1-106] | – | – | – | – | 100 | 100 | 100 |
| Cc1cc(C(F)(F)F)nn1CC(=O)N1CCC(c2nc(C3OCc4c(Br)ccc(OS(C)(=O)=O)c4CO3)cs2)CC1 (centres unmarked) [Compound 1-66] | – | – | – | – | 100 | 100 | 100 |
| CS(=O)(=O)Oc1ccc(F)c2c1COC(c1csc(C3CCN(C(=O)Cc4cc(Cl)ccc4Cl)CC3)n1)OC2 (centres unmarked) [Compound 2-16] | – | – | – | – | 100 | 100 | 100 |
| CC(C(=O)N1CCC(c2nc(C3OCc4c(F)ccc(OS(C)(=O)=O)c4CO3)cs2)CC1)n1nc(C(F)F)cc1C(F)F (centres unmarked) [Compound 1-160] | – | – | – | – | 100 | 100 | 100 |
| CC(C)(C)c1ccc2c(c1)COC(c1csc(C3CCN(C(=O)Cn4nc(C(F)(F)F)cc4C(F)(F)F)CC3)n1)OC2 (centres unmarked) [Compound 1-92] | – | – | – | – | 100 | 90 | 90 |
| Cc1cc(C(F)(F)F)nn1CC(=O)N1CCC(c2nc(C3OCc4cc5ccccc5cc4CO3)cs2)CC1 [Compound 1-10, 4-[4-(1,5-dihydro-3H-2,4-naphthodioxepin-3-yl)-2-thiazolyl]-1-[2-[5-methyl-3-(trifluoromethyl)-1H-pyrazole-1-yl]acetyl]piperidine] | – | – | – | – | 100 | 100 | 100 |
| Cc1ccc(C)c(CC(=O)N2CCC(c3nc(C4OCc5ccccc5CO4)cs3)CC2)c1 [Compound 2-11] | – | – | – | – | 100 | 100 | 100 |
| Cc1ccc(C)c(NC(=O)N2CCC(c3nc(C4OCc5c(F)ccc(F)c5CO4)cs3)CC2)c1 [Compound 2-15] | – | – | – | – | 100 | 100 | 100 |
| Cc1cc(C(F)(F)F)nn1CC(=S)N1CCC(c2nc(C3OCc4c(F)ccc(OS(C)(=O)=O)c4CO3)cs2)CC1 (centres unmarked) [Compound 1-107] | – | – | – | – | 100 | 100 | 100 |
| O=C(Cn1nc(C(F)F)cc1C(F)F)N1CCC(c2nc(C3OCc4ccc(C(F)(F)F)cc4CO3)cs2)CC1 (centres unmarked) [Compound 1-81] | – | – | – | – | 100 | 100 | 100 |
| Cc1cc(C(F)(F)F)nn1CC(=O)N1CCC(c2nc(C3OCc4cccc(OC(F)F)c4CO3)cs2)CC1 (centres unmarked) [Compound 1-94] | – | – | – | – | 100 | 100 | 100 |
| Cc1cc(C(F)(F)F)nn1CC(=O)N1CCC(c2nc(C3OCc4cccc(OS(=O)(=O)C5CC5)c4CO3)cs2)CC1 (centres unmarked) [Compound 1-13] | – | – | – | – | 100 | 100 | 100 |
| CC1OC(c2csc(C3CCN(C(=O)Cn4nc(C(F)(F)F)cc4C(F)(F)F)CC3)n2)OCc2ccccc21 (centres unmarked) [Compound 1-88] | – | – | – | – | 100 | 100 | 100 |
| CS(=O)(=O)Oc1ccc(F)c2c1COC(c1csc(C3CCN(C(=O)CON=CC(F)(F)F)CC3)n1)OC2 (centres unmarked) [Compound 3-3] | – | – | – | – | 100 | 100 | 100 |

| SMILES | pest or weed control at 4 µg/mL [1] [%] | pest or weed control at 4 µg/mL [2] [%] | pest or weed control at 4 µg/mL [3] [%] | pest or weed control at 1000 ppm [4] [%] | control value (Test 1) [1] | control value (Test 2) [2] | control value (Test 3) [3] |
| --- | --- | --- | --- | --- | --- | --- | --- |
| COc1ccc(OS(C)(=O)=O)c2c1COC(c1csc(C3CCN(C(=O)Cn4nc(C(F)(F)F)cc4C)CC3)n1)OC2 (centres unmarked) [Compound 1-26] | – | – | – | – | 100 | 100 | 100 |
| COc1cccc2c1COC(c1csc(C3CCN(C(=O)Cc4cc(C)ccc4C)CC3)n1)OC2 (centres unmarked) [Compound 2-50] | – | – | – | – | 100 | 100 | 100 |
| CS(=O)(=O)Oc1ccc(F)c2c1COC(c1csc(C3CCN(C(=O)Cn4nc(C(F)(F)F)cc4C(F)(F)F)CC3)n1)OC2 (centres unmarked) [Compound 1-87] | – | – | – | – | 100 | 100 | 100 |
| COc1ccc([N+](=O)[O-])c2c1COC(c1csc(C3CCN(C(=O)Cc4cc(C)ccc4C)CC3)n1)OC2 (centres unmarked) [Compound 2-9] | – | – | – | – | 100 | 100 | 100 |
| O=C(Cn1nc(C(F)(F)F)cc1C(F)(F)F)N1CCC(c2nc(C3OCc4cccc(C=NO)c4CO3)cs2)CC1 (centres unmarked) [Compound 1-149] | – | – | – | – | 100 | 100 | 100 |
| Cc1cc2c(cc1C)COC(c1csc(C3CCN(C(=O)Cn4nc(C(F)(F)F)cc4C)CC3)n1)OC2 [Compound 1-4] | – | – | – | – | 100 | 100 | 100 |
| CS(=O)(=O)Oc1ccc([N+](=O)[O-])c2c1COC(c1csc(C3CCN(C(=O)Cn4nc(C(F)(F)F)cc4C(F)(F)F)CC3)n1)OC2 (centres unmarked) [Compound 1-128] | – | – | – | – | 100 | 100 | 100 |
| N#Cc1cccc2c1COC(c1csc(C3CCN(C(=O)Cn4nc(C(F)F)cc4C(F)F)CC3)n1)OC2 (centres unmarked) [Compound 1-148] | – | – | – | – | 100 | 100 | 100 |
| COc1ccc(Cl)c2c1COC(c1csc(C3CCN(C(=O)Cn4nc(C(F)F)cc4C(F)F)CC3)n1)OC2 (centres unmarked) [Compound 1-112] | – | – | – | – | 100 | 100 | 100 |
| Cc1cc(C(F)(F)F)nn1CC(=O)N1CCC(c2nc(C3OCc4c(OC(F)F)ccc(OS(C)(=O)=O)c4CO3)cs2)CC1 (centres unmarked) [Compound 1-143] | – | – | – | – | 100 | 100 | 100 |
| Cc1cc(C(F)(F)F)nn1CC(=O)N1CCC(c2nc(C3OCc4cccc(OS(=O)(=O)CCC(F)(F)F)c4CO3)cs2)CC1 (centres unmarked) [Compound 1-30] | – | – | – | – | 100 | 100 | 100 |
| O=C(Cc1cc(Cl)ccc1Cl)N1CCC(c2nc(C3OCc4cccc([N+](=O)[O-])c4CO3)cs2)CC1 (centres unmarked) [Compound 2-36] | – | – | – | – | 100 | 100 | 100 |
| Cc1cc(C(F)(F)F)nn1CC(=O)N1CCC(c2nc(C3OCc4cc(Cl)c(Cl)cc4CO3)cs2)CC1 [Compound 1-5] | – | – | – | – | 100 | 100 | 100 |
| CS(=O)(=O)Oc1ccc(I)c2c1COC(c1csc(C3CCN(C(=O)Cn4nc(C(F)(F)F)cc4C(F)(F)F)CC3)n1)OC2 (centres unmarked) [Compound 1-129, 4-[4-(6-iodo-9-methylsulfonyloxy-1,5-dihydro-3H-2,4-benzodioxepin-3-yl)-2-thiazolyl]-1-[2-[3,5-bis(trifluoromethyl)-1H-pyrazole-1-yl]acetyl]piperidine] | 100 | 100 | 100 | – | – | – | – |
| COc1ccc([N+](=O)[O-])c2c1COC(c1csc(C3CCN(C(=O)Cn4nc(C(F)F)cc4C(F)F)CC3)n1)OC2 (centres unmarked) [Compound 1-74] | – | – | – | – | 100 | 100 | 100 |
